This is an account of results in patent publication US5883133A, “Substituted cinnamic acid guanidides, a process for their preparation, their use as medicaments or diagnostic agents and medicaments comprising them” (priority 1995, dated 1999).

Each structure is given as a SMILES string. Counter-ions that a name gives are not always drawn.

Test [1] addresses T1, Na^+ /H^+ exchanger of rabbit erythrocytes (Oryctolagus cuniculus, UniProt P23791).
T1 construct: exchanger of rabbit erythrocytes; endogenous in cells; host or cells: erythrocytes from ear-artery blood of White New Zealand rabbits (Ivanovas) fed 2% cholesterol for six weeks
Put plainly: Inhibition of the Na+/H+ exchanger of rabbit erythrocytes (amiloride-sensitive sodium influx, flame photometry). The format is cell-based, rabbit (White New Zealand). The conditions noted are these: pH 7.4, 37° C., hyperosmolar salt/sucrose medium. From the text:
Inhibitors of the Na^+ /H^+ exchanger of rabbit erythrocytes:
White New Zealand rabbits (Ivanovas) were given a standard diet with 2% of cholesterol for six weeks in order to activate the Na^+ /H^+ exchange so that the Na^+ influx into the erythrocytes via Na^+ /H^+ exchange can be determined by flame photometry. The blood was taken from the ear arteries and rendered uncoagulable by 25 IU/ml of heparin potassium. A portion of each sample was used for duplication determination of the hematocrit by centrifugation. Aliquots of in each case 100 μl were used for measurement of the initial Na^+ content of the erythrocytes.
To determine the amiloride-sensitive sodium influx, 100 μl of each blood sample were each incubated at pH 7.4 and 37° C. in 5 ml of a hyperosmolar salt/sucrose medium (mmol/l: 140 NaCl, 3 KCl, 150 sucrose, 0.1 ouabain, 20 tris-hydroxymethyl-aminomethane). The erythrocytes were then washed three times with ice-cold MgCl2 /ouabain solution (mmol/l: 112 MgCl2, 0.1 ouabain) and hemolyzed in 2.0 ml of distilled water. The intracellular sodium content was determined by flame photometry.
The net Na^+ influx was calculated from the difference between the initial sodium levels and the sodium content of the erythrocytes after incubation. […]

For another test, the system named is rat hearts. The conditions noted are these: isolated rat hearts, cited from earlier work.

T1 sequence (P23791 whole entry): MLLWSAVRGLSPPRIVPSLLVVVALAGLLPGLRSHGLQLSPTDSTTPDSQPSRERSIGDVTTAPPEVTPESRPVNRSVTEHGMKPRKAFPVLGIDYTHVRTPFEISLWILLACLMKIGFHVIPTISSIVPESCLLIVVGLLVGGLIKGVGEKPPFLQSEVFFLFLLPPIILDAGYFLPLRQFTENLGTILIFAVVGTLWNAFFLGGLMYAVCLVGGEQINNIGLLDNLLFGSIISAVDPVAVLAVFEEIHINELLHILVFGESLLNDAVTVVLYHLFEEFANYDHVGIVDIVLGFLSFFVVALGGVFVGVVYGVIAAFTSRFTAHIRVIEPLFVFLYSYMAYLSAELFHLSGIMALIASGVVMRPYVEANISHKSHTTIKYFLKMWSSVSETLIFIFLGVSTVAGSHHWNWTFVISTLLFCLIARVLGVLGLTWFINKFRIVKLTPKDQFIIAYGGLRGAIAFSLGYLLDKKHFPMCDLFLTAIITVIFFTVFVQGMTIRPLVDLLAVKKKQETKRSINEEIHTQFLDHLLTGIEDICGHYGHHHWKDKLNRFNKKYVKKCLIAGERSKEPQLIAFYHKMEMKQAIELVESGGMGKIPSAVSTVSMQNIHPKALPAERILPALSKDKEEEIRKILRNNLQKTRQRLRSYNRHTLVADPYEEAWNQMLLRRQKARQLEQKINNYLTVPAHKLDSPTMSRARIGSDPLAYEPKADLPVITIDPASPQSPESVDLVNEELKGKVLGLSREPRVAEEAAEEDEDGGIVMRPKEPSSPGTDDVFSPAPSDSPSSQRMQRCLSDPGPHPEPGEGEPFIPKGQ

For orientation: IC50 means the midpoint of a concentration-inhibition curve. `C/C(=C\c1ccc(N(C)C)cc1)C(=O)N=C(N)N` [Example 1, E-3-(4-Dimethylaminophenyl)-2-methyl-propenoic acid guanidide hydrochloride]: the IC50 in test [1] was under 1 µM. Consider `C/C(=C\c1ccc(OCCCN(C)C)cc1)C(=O)N=C(N)N` [Example 2, E-3-[4-(3-Dimethylaminopropoxy)phenyl)-2-methyl-propenoic acid guanidide dihydrochloride], for which, in test [1], the concentration for half-maximal inhibition (IC50) is under 1 µM.

Regarding `NC(N)=NC(=O)c1nc(Cl)c(N)nc1N` [amiloride], the “suppression of artificially induced ventricular fibrillation” value in the test with rat hearts (Eur. Heart J. 9 (suppl. 1): 167 (1988)) is given as “suppressed completely”. On to `CCN(c1nc(N)c(C(=O)N=C(N)N)nc1Cl)C(C)C` [ethylisopropylanmiloride, Ethylisopropylamiloride], for which the “potency in ventricular fibrillation model relative to amiloride” value in the test with rat hearts (compared with amiloride) is “even more potent than amiloride”.
